Assay [1] has as its system coronary blood flow (left anterior descending coronary artery). As to the kind of experiment: Microvascular endothelial function: change in coronary blood flow after intracoronary acetylcholine. The assay is classed as in vivo, human. The note with it: maximal dose of intracoronary acetylcholine, unadjusted. As for the experimental part: (§1) After diagnostic angiography and exclusion of significant obstructive coronary artery disease, endothelium-dependent coronary vasoactivity was assessed as described elsewhere (Suwaidi et al., Circulation, 101:948-954 (2000) and Hasdai et al., Circulation, 96:3390-3395 (1997)). In brief, a Doppler guidewire (Flowire, Volcano Inc.) within a coronary-infusion catheter (Ultrafuse, SciMed Life System) was positioned into the midportion of the left anterior descending coronary artery. Intra-coronary acetylcholine at increasing concentrations of 10^−6, 10^−5, and 10^−4 M was infused to obtain effective coronary concentrations of 10^−8, 10^−7, and 10^−6 M, respectively. Each dose of acetylcholine was infused for three minutes through the infusion catheter into the left anterior descending coronary artery to assess endothelium dependent vasoreactivity. Hemodynamic data, Doppler measurements, and a coronary angiogram were obtained after each infusion. Coronary artery diameter was measured by an independent investigator in the segment 5 mm distal to the tip of the Doppler wire using a computer-based image analysis system. Average peak velocity (APV) was derived from the Doppler flow velocity spectra, and coronary blood flow (CBF) was determined as π(coronary artery diameter/2)^2×(APV/2). […] Endothelium-independent microvascular function was determined by the coronary flow reserve (CFR), which is the ratio of the APV at maximal hyperemia to the APV at baseline. […] Lp-PLA2 levels were measured in plasma aliquots, which were obtained at the time of coronary angiography and stored at −70° C., using an enzyme-linked immunoassay (PLAC™ test, diaDexus, Inc; Caslake et al., Atherosclerosis, 150:413-419 (2000)). […]
Microvascular endothelial function as determined by percentage change in coronary blood flow in response to the maximal dose of intracoronary acetylcholine was measured (FIG. 1). […]

The subject of assay [2] is coronary artery diameter (left anterior descending coronary artery). Description: Epicardial endothelial function: change in coronary artery diameter after intracoronary acetylcholine. The note with it: maximal dose of acetylcholine, unadjusted. The assay is classed as in vivo, human. As to the method:
as §1
Epicardial endothelial function as determined by percentage change in coronary artery diameter in response to the maximal dose of acetylcholine was measured (FIG. 2). […]

Where [3] appears, read: patients in Lp-PLA2 Tertile 1 (110-181.4 ng/mL, N=57).
Where [4] appears, read: patients in Lp-PLA2 Tertile 2 (181.48-239.6 ng/mL, N=58).
Where [5] appears, read: patients in Lp-PLA2 Tertile 3 (240-443 ng/mL, N=57).

Regarding `CC(=O)OCC[N+](C)(C)C` [acetylcholine], the results for the “percentage change in coronary blood flow” value in assay [1] (setting [3]), in assay [1] (setting [4]) and in assay [1] (setting [5]) were 78.4±15.2%, 63.8±73.2% and 32.0±71.7%, respectively. Besides, the “percentage change in coronary artery diameter” value in assay [2] (setting [3]) is on record as −9.5±15.2%; in assay [2] (setting [4]), −14.1±14.7%; in assay [2] (setting [5]), −23.3±25.1%.

The record behind these values is patent US20070020716A1, “Coronary Endothelial Dysfunction” (priority 2005, published 2007).
